Biological target: T1, rubredoxin reductase RubB (also RubR, RdxR) (Pseudomonas aeruginosa, UniProt Q9HTK9)
T1 construct: gene alkT; gene 1,155 bp
Assay: stopped-flow FAD fluorescence (excitation […] nm)
Assay type: biochemical
Conditions: pH 8.0, 0.1 M NaCl, 25 °C; reduction of bound FAD; no RubA2

T1 sequence (Q9HTK9 whole entry): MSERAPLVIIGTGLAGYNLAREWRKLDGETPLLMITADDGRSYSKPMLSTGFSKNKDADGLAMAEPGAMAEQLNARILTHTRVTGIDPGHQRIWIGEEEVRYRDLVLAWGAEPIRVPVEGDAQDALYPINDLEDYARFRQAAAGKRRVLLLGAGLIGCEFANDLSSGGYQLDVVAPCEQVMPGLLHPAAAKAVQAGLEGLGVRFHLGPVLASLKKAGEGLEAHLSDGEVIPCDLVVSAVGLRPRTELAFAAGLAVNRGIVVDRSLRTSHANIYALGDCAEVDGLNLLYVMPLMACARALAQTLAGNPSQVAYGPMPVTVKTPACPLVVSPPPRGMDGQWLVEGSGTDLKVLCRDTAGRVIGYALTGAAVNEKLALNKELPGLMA

Compound: NC(=O)C1=CN([C@@H]2O[C@H](COP(=O)(O)OP(=O)(O)OC[C@H]3O[C@@H](n4cnc5c(N)ncnc54)[C@H](O)[C@@H]3O)[C@@H](O)[C@H]2O)C=CC1 [NADH]
- stopped-flow FAD fluorescence (excitation 436 nm): after the addition of NADH the FAD fluorophore was reduced within milliseconds to FADH2

Reference: publication PMC12431658, “Versatile roles of rubredoxin reductase of Pseudomonas aeruginosa TBCF10839 in virulence and stress protection” (PLOS Pathogens, 2025)
